Literature values as cited in patent publication US20150182535A1, “Antimicrobial Composition for the Treatment of Methicillin-resistant Staphylococcus aureus” (priority 2014, published 2015).

Test system: humans

Row | SMILES | toxicity (general statement in words) | safety relative to artemether | toxicity relative to chloroquinine
1 | C[C@H]1[C@H](N2CCS(=O)(=O)CC2)O[C@@H]2O[C@@]3(C)CC[C@H]4[C@H](C)CC[C@@H]1[C@@]24OO3 [Artemisone] | very low toxicity | – | –
2 | C[C@H]1[C@H](OC(=O)CCC(=O)O)O[C@@H]2O[C@@]3(C)CC[C@H]4[C@H](C)CC[C@@H]1[C@@]24OO3 [artesunate] | – | twice as safe | one-fiftieth
